# Read-outs that look alike come from different tables or passages of the source.
# How the values were obtained:
# Format in all cases: in vivo
# rats of 10 months of age = system: rats of 10 months of age
# Experimental: Using rats of 10 months of age (8 to 9 animals per 1 group), 0.5 g/kg of carbon tetrachloride was orally administered as a hepatic toxicity substance to increase the serum GOT level to 500 KARMEN units or more after 24 hours of the administration, simultaneously carrying out oral administration of (1) indomethacin (5 mg/kg) or (2) tetracycline (10 mg/kg) as a pharmaceutical drug having hepatic toxicity, 3 times on every other day.
# In the inventive substance-treated group, the sulfatide composition described in Composition Production Example (2 mg/kg as sulfatide) was orally administered simultaneously with the pharmaceutical drug having hepatic toxicity.
# The GOT enzyme released in blood caused by hepatocyte destruction was measured 12 hours after completion of the drug administration, and the liver was extracted to carry out histological tissue examination.
# [1] = system: spontaneous nephritis in MRL/1 mice; test: Preventive action against spontaneous nephritis in MRL/1 mice (urinary protein, blood urea nitrogen); conditions: male MRL/1 mice, positive (urinary protein 100 mg/dl or more) / survived animals
# Experimental: Protective effect of the pharmaceutical preparation of the present invention against spontaneous nephritis in MRL/1 mice was examined (protective effect on functional reduction due to aging).
# Each test sample of 1 to 10 mg/kg mixed with feed was orally administered to male MRL/1 mice of 6 weeks of age (15 animals per 1 group) twice a week for 12 weeks. During the administration period, urinary protein was measured once a week to examine positive ratio in each week of age by defining an individual showing a urinary protein level of 100 mg/dl or more as positive. Also, blood urea nitrogen was measured on the next day of the final administration to carry out serologic biochemical evaluation of the action of the compound of the present invention against nephritis, together with histopathological evaluation.
# [2] = system: mouse hepatitis virus (MHV); test: Interferon enhancer effect in mice infected with mouse hepatitis virus (survival); conditions: ICR mice, MHV Friend strain 2 LD50 i.p.; oral sulfatide used simultaneously with IFN-α i.p., once a day for 3 days
# Experimental: Synergetic effect of the simultaneous use of interferon-α (IFN-α) and the substance of the present invention, sulfatide, on mice infected with mouse hepatitis virus (MHV)
# A total of 10 ICR mice were used in one group, and intraperitoneal administration of mouse IFN-α and oral administration of […] were carried out once a day for 3 days. Just before the administration on the second day, MHV Friend strain was inoculated into the abdominal cavity in a 2 LD₅₀ equivalent dose, and conditions of the animals were observed until 14 days thereafter to calculate survival ratio.
# [3] = system: herpes simplex type 1 virus (HSV-1); test: Interferon enhancer effect in mice infected with herpes simplex type 1 virus (survival); conditions: BALB/c mice, HSV-1 MIYAMA strain 10 LD50; oral sulfatide for 5 days together with 4 × 10⁴ IU/kg IFN-α i.p.
# Experimental: Synergetic effect of the simultaneous use of IFN-α and sulfatide on mice infected with herpes simplex type 1 virus (HSV-1)
# A total of 10 BALB/c mice were used in one group and infected with a 10 LD₅₀ equivalent dose of HSV-1 MIYAMA strain. Intraperitoneal administration of IFN-α was carried out on the day before the inoculation of HSV-1 and just after the inoculation, and oral administration of sulfatide was carried out continuously for 5 days starting on the day before the HSV-1 inoculation until the fourth day after the inoculation. Conditions of the animals were observed until 20 days after the HSV-1 infection to calculate survival rate.
# [4] = dose 2 mg/kg oral in feed twice a week from 6 weeks of age
# [5] = dose 1 mg/kg oral in feed twice a week from 6 weeks of age
Compound,"Changes in positive urinary protein, Weeks of Age 16 [1, 4]","Changes in positive urinary protein, Weeks of Age 17 [1, 4]","Changes in positive urinary protein, Weeks of Age 18 [1, 4]",also measured
"COc1ccc2c(c1)c(CC(=O)O)c(C)n2C(=O)c1ccc(Cl)cc1 [indomethacin, reference compound]",–,–,–,"Changes in GOT, 12 hrs after Completion of Drug Administration (rats of 10 months of age; group a): carbon tetrachloride + indomethacin (5 mg/kg oral, 3 times on every other day), no sulfatide): 1054 ± 31.2 KARMEN units"
"CCCCCCCCCCCCCCCCOCC(COC1OC(CO)C(O)C(OS(=O)(=O)O)C1O)OC(=O)CCCCCCCCCCCCCCC [seminolipid, 3-O-(β-D-Galactopyranosyl 3-sulfate)-2-O-hexadecanoyl-1-O-hexadecyl-L-glycerol]",3/15,4/15,8/15,–
III³ II³ SO₃ Ge3Cer [SB2],4/15,5/15,10/15,–
II³ SO₃ Lac Cer [SM3],2/15,4/15,8/15,–
IV³ SO₃ II³ SO₃ Ge4Cer [SB1a],5/15,7/15,10/15,–
sialyl Lewis A,–,–,–,"Changes in positive urinary protein, Weeks of Age 16 [1, 5]: 3/15; Changes in positive urinary protein, Weeks of Age 17 [1, 5]: 5/14; Changes in positive urinary protein, Weeks of Age 18 [1, 5]: 9/14"
sialyl Lewis X,–,–,–,"Changes in positive urinary protein, Weeks of Age 16 [1, 5]: 3/15; Changes in positive urinary protein, Weeks of Age 17 [1, 5]: 4/15; Changes in positive urinary protein, Weeks of Age 18 [1, 5]: 8/15"
sulfatide,2/15,5/15,9/15,"effect of IFN-α on average survival days [2]: further increased significantly in a dose dependent fashion; average survival days [3]: significantly effective in dose-dependently prolonging average survival days; Changes in GOT, 12 hrs after Completion of Drug Administration (rats of 10 months of age; group c): carbon tetrachloride + indomethacin (5 mg/kg) + sulfatide composition (2 mg/kg as sulfatide, oral)): 469 ± 61.5 KARMEN units; Changes in GOT, 12 hrs after Completion of Drug Administration (rats of 10 months of age; group d): carbon tetrachloride + tetracycline (10 mg/kg) + sulfatide composition (2 mg/kg as sulfatide, oral)): 439 ± 30.5 KARMEN units; Changes in GOT, 12 hrs after Completion of Drug Administration (rats of 10 months of age; group e): carbon tetrachloride + sulfatide composition (2 mg/kg as sulfatide, oral)): 128 ± 48.7 KARMEN units"
